According to article PMC9555310, “Novel inhibitors and activity-based probes targeting serine proteases” (Frontiers in Chemistry, 2022):

What was measured:
trypsin = target: T1, trypsin (Sus scrofa, UniProt P00761); experiment: Off-target study, residual activity after 2 min pre-incubation: trypsin; assay type: biochemical, porcine; settings: 2 min incubation, PBS pH 7.4, 37°C, residual activity vs DMF control
T1 construct: purchased Sigma-Aldrich; host or cells: porcine pancreas
Procedure: FIGURE 5 Results of “off-target“ studies. NAP849 (A), NAP800 (B) and NAP830 (C) were tested against trypsin, chymotrypsin, and NE. Samples (approx. 0.01 μg) of each protease were incubated with the indicated concentrations of test compound for 2 min, in PBS, pH 7.4, at 37°C. (D) NAP858, NAP962 and NAP849 were tested against cathepsin B at the indicated concentrations in 0.1 M MES, pH 6.1, containing 1 mM EDTA, for 2 min, at 37°C. Aliquots (approx. 10 μL) of each incubation sample were then added to a fresh sample (990 μL) of PBS for the serine proteases and MES for cathepsin B, containing the appropriate substrate for each protease, to measure their residual activity. Controls incubations were performed in the absence of test compound, but in the presence of an appropriate volume of DMF vehicle used to prepare stock solutions of each inhibitor under study. […]
For assays requiring a pre-incubation step enzyme and inhibitor in assay buffer were incubated together, at 37 °C, for 2 min, with gentle agitation. […] The fluorescence production was then measured as described for the previous procedure.

plasmin = target: T2, plasmin (Homo sapiens, UniProt P00747); experiment: Irreversible inhibition kinetics of plasmin (fluorogenic substrate progress curves); assay type: biochemical; settings: PBS pH 7.4, 37°C, mean ± SD (n=2); for Ki: Boc-Val-Leu-Lys-NHMec 50 μM; for k 3: first-order rate constant; for k 3 / K i: second-order rate constant of inactivation
T2 construct: purchased Sigma-Aldrich (supplement); R&D Systems; host or cells: human plasma
T2 sequence (P00747 581-810 limits assumed): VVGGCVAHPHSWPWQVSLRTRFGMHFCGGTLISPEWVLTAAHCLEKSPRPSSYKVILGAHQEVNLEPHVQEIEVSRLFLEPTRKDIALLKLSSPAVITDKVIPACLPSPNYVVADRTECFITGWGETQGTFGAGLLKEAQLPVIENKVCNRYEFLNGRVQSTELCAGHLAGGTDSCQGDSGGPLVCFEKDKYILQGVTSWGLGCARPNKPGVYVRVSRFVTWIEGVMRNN
T2 sequence (P00747 97-580 partner limits assumed): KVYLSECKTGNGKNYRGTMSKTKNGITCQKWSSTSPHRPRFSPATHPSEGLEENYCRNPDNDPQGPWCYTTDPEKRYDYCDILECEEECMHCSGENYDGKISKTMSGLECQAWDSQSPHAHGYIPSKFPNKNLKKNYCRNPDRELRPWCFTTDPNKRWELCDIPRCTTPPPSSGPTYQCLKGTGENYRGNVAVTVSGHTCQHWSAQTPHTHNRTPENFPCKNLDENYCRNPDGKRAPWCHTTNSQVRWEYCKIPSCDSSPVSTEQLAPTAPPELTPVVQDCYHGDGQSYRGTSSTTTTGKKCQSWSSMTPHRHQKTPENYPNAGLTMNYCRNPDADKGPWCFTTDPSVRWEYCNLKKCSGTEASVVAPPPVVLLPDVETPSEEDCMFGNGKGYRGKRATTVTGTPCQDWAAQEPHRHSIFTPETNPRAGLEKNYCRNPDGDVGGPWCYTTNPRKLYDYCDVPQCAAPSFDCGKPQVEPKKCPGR
Procedure: A range of inhibitor concentrations were prepared from a 10 mM stock solution of the test compounds (NAP533, NAP559, NAP800, NAP830, NAP849, and NAP962) in N, N-dimethylformamide (DMF). Recombinant protease activities were assayed using the cognate fluorogenic substrates as follows: trypsin (Z-Gly-Gly-Arg-NHMec), thrombin (Boc-Val-Pro-Arg-NHMec), plasmin (Boc-Val-Leu-Lys-NHMec), human neutrophil elastase (MeO-Succinyl-Ala-Ala-Pro-Val-NHMec), and chymotrypsin (Succinyl-Ala-Ala-Pro-Phe-NHMec). Each substrate was used at a final concentration of 50 μM, in the appropriate buffer for each protease. All inhibition assays were performed in microtiter plates maintained at 37°C in a final volume of 100 μL. The reaction was initiated by the addition of each protease (approx. 0.01 μg/well) and the rate of substrate hydrolysis was recorded continuously at 37°C, over a 60 min period, by measuring the rate of increase in fluorescence (at λex 360 nm, λem 480 nm) using a FLUOstar Optima microplate reader (BMG Labtech).
The resultant inhibition progress curves obtained for each inhibitor were analyzed by the kinetic models developed by [Tian and Tsou (1982)] and [Walker and Elmore (1984)], for irreversible inhibitors, with curve fitting being achieved using GraFit (Erithacus Software), as described previously ([Ferguson et al., 2016]).
FIGURE 4 Progress curves for (A), chymotrypsin-catalysed hydrolysis of Succinyl-Ala-Ala-Pro-Phe-NHMec, in the presence of varying concentrations of NAP849. (B), NE-catalysed hydrolysis of MeO-succinyl-Ala-Ala-Pro-Val-NHMec, in the presence of varying concentrations of NAP800. (C) Trypsin-catalysed of Z-Gly-Gly-Arg-NHMec, in the presence of NAP830. (D) Plasmin-catalysed hydrolysis of Boc-Val-Leu-Lys-NHMec, in the presence of varying concentrations of NAP962. Assays were carried out in PBS, pH 7.4, at 37°C, in the presence of a range of inhibitor concentrations (0.25–50 μM) and a fixed concentration (50 μM) of the appropriate substrate for each protease.
The “product progress” curves for substrate hydrolysis in the presence of an inhibitor (Figure 4) are indicative of the action of irreversible inhibitors operating through the kinetic scheme illustrated in Figure 6. In this scheme, the formation of the reversible enzyme–inhibitor complex (EI) is zcharacterized by the inhibitor constant K i. This is converted into the covalent/irreversible complex (E-I) characterized by a first-order rate constant k 3. The overall second-order rate constant for the inactivation of E by I is given by the ratio k 3/K i ([Walker and Elmore, 1984]; [Tsou, 1988]).
Fluorogenic enzyme assays were carried out on a FLUOstar OPTIMA spectro-fluorimeter (BMG Labtech) with analysis performed on MARS Data Analysis Software (BMG Labtech). Black 96-well microtitre plates were supplied by Thermo Scientific. Trypsin from porcine pancreas, plasmin from human plasma and chymotrypsin from bovine pancreas were obtained from Sigma-Aldrich. Thrombin and Cathepsin B were supplied by R and D Systems. Human Neutrophil Elastase was supplied by Calbiochem. Fluorogenic substrates Z-Gly-Gly-Arg-NHMec, Succinyl-Ala-Ala-Pro-Phe-NHMec and MeO-Succinyl-Ala-Ala-Pro-Val-NHMec were supplied by Sigma-Aldrich. Boc-Val-Pro-Arg-NHMec was obtained from R and D Systems and Boc-Val-Leu-Lys-NHMec was supplied by PeptaNova. Phosphate Buffered Saline tablets were acquired from Sigma- Aldrich.
Protease inactivation by each of the compounds under study was evaluated using a fluorogenic enzyme assays. Protease-substrate combinations used as detailed in Section 2. Inhibitors were made up as 10 mM stock solutions in either DMF or DMSO, then diluted with PBS (pH 7.4) to give appropriate working concentrations. A final volume of 100 μL was used per well. Substrate (50 μM final concentration) was added to a black 96-well microtitre plate (Thermo Scientific), in duplicate, followed by addition of inhibitor, in such a manner to give the required final concentration. […]

cathepsin B (CTSB) = target: T3, cathepsin B (CTSB) (Homo sapiens, UniProt P07858); experiment: Off-target study, residual activity after 2 min pre-incubation: cathepsin B; assay type: biochemical; settings: 25 and 50 μM, 0.1 M MES pH 6.1, 1 mM EDTA, 37°C
T3 construct: purchased R and D Systems
Procedure: FIGURE 5 Results of “off-target“ studies. NAP849 (A), NAP800 (B) and NAP830 (C) were tested against trypsin, chymotrypsin, and NE. Samples (approx. 0.01 μg) of each protease were incubated with the indicated concentrations of test compound for 2 min, in PBS, pH 7.4, at 37°C. (D) NAP858, NAP962 and NAP849 were tested against cathepsin B at the indicated concentrations in 0.1 M MES, pH 6.1, containing 1 mM EDTA, for 2 min, at 37°C. Aliquots (approx. 10 μL) of each incubation sample were then added to a fresh sample (990 μL) of PBS for the serine proteases and MES for cathepsin B, containing the appropriate substrate for each protease, to measure their residual activity. Controls incubations were performed in the absence of test compound, but in the presence of an appropriate volume of DMF vehicle used to prepare stock solutions of each inhibitor under study.
Two elements were investigated regarding possible “off-target” effects–determining the extent of cross-reactivity of each of the new putative ABPs between the various serine protease family members and assessing their collateral inhibitory action against another mechanistic class–the cysteine proteases, using cathepsin B (CTSB) as an exemplar.
For assays requiring a pre-incubation step enzyme and inhibitor in assay buffer were incubated together, at 37 °C, for 2 min, with gentle agitation. The reaction mixture was then aliquoted (50 μL) in duplicate on a black 96-well microtitre plate followed by addition of substrate to make a final concentration of 50 μM in a total volume of 100 μL. The fluorescence production was then measured as described for the previous procedure.
Assays with Cathepsin B required a pre-activation step of the protease prior to use in the fluorogenic enzyme assays. Cathepsin B was diluted to 10 μg/ml in activation buffer (0.1 M MES, pH 6.1, containing 1 mM EDTA and 2 mM DTT) and left to stand at room temperature for 15 minutes. Activated Cathepsin B was then diluted (1:50 to give 10 ng/50 μl) with assay buffer (activation buffer minus the DTT) prior to use as described previously.

T1 sequence (P00761 9-231): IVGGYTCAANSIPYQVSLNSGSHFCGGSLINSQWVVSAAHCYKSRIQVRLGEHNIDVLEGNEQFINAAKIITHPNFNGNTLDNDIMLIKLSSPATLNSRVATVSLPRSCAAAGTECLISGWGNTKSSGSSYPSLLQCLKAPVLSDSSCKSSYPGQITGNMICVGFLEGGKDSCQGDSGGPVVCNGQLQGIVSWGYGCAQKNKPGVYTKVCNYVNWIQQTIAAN

| SMILES | off-target inhibition of trypsin (trypsin) | Ki (plasmin) | k 3 (plasmin) | k 3 / K i (plasmin) | inhibitory activity against CTSB (cathepsin B (CTSB)) |
| --- | --- | --- | --- | --- | --- |
| CC(C)N(CC(=O)NCC(=O)NCC(=O)NCCCOCCOCCOCCCNC(=O)CCCCC1SCC2NC(=O)NC21)C(=O)ON1C(=O)CCC1=O (stereo not drawn) [NAP800, Succinimidoyl-CO-NVal-Gly-Gly-PEG-Biotin] | no “off-target” or collateral inhibition | – | – | – | – |
| NCCCCN(CC(=O)NCC(=O)NCC(=O)NCCCOCCOCCOCCCNC(=O)CCCCC1SCC2NC(=O)NC21)C(=O)ON1C(=O)CCC1=O (stereo not drawn) [NAP830, Succinimidoyl-CO-NLys-Gly-Gly-PEG-Biotin] | – | 7.2 µM | 0.4 (± 0.05) min^−1 | 6.2 (± 0.9) × 10^4 M^−1 min^−1 | none of the three carbamates tested exhibited any inhibitory activity against CTSB |
| O=C(CCCCC1SCC2NC(=O)NC21)NCCCOCCOCCOCCCNC(=O)CNC(=O)CNC(=O)CN(Cc1ccccc1)C(=O)ON1C(=O)CCC1=O (stereo not drawn) [NAP849, Succinimidoyl-CO-NPhe-Gly-Gly-PEG-Biotin] | complete absence of inhibition | – | – | – | – |
| CC(C)N(CC(=O)NCCCOCCOCCOCCCNC(=O)CCCCC1SCC2NC(=O)NC21)C(=O)CN(Cc1ccccc1)C(=O)CN(CCCCN)C(=O)ON1C(=O)CCC1=O (stereo not shown) [NAP962, Succinimidoyl-CO-NLys-NPhe-NVal-PEG-Biotin] | – | 4.2 µM | 0.6 (± 0.1) min^−1 | 1.4 (± 0.3) × 10^5 M^−1 min^−1 | none of the three carbamates tested exhibited any inhibitory activity against CTSB |
